Source: US20040156854A1, “Methods for the identification, assessment, and treatment of patients with proteasome inhibition therapy” (priority 2002, published 2004)

Experiments:
[1] = test system: OVCAR-3 and RPMI8226 resistant sub-clones; experiment: Bortezomib resistant tumor cell lines generated by repeated dosing: resistance to bortezomib; assay type: cell-based; conditions: sub-clones selected after dosing with 3-5 times the LD50; vs parental lines
Description: In order to better understand the specific mechanism(s) by which proteasome inhibitors exert their apoptotic effects, as well as to elucidate mechanisms by which those effects may be subverted, bortezomib resistant tumor cell lines were generated. […] The drug was then removed and surviving cells were allowed to recover for 24 to 72 hours. This process was then repeated for multiple rounds with the bortezomib dose doubled each time. After cells had been dosed with 3-5 times the LD50, several individual cell lines were sub-cloned from single cell colonies. […] This strategy was applied to both ovarian tumor cell lines (OVCAR-3) and myeloma tumor cell lines (RPMI8226) and multiple sub-clones were characterized. The resistant cell lines were then subject to gene expression profiling using the Affymetrix U133 microarray. A comparison of genes differentially expressed in sensitive parental (S) versus resistant sub-clones (R) highlighted several genes that were also identified in analysis of sensitive and resistant myeloma biopsies. The number identified in Table 8 corresponds to the marker number identification in Table 1. Such results not only highlight a potential relationship between expression of these genes and bortezomib sensitivity, but also support the validity of methods used to define response genes in clinical samples.

[2] = test system: human tumor xenograft models; conditions: cited from earlier work
[3] = design: species or system human; conditions: in vivo
Description: (§1) A multicenter, open-label, non-randomized Phase 2 trial was conducted, wherein enrolled were patients with relapsed myeloma that was refractory to therapy. Patients were treated with 1.3 mg of bortezomib per square meter of body surface area, twice weekly for two weeks, followed by one week without treatment, for up to eight cycles (24 weeks).
(§2) Statistical analysis focused on the need to estimate response rates within specified limits of accuracy in order to determine if either of the two dose levels 1.0 or 1.3 mg/m^2/dose alone or in combination with dexamethasone are sufficiently efficacious to warrant further clinical study. This study was noncomparative in nature; therefore efficacy comparisons between the two doses of bortezomib were not performed. In addition, this study provided safety data that helped to characterize the potential toxicity of treatment at the two evaluated dose levels for up to eight cycles of therapy.
Over 80% of the 78 patients completed 2 or more cycles of treatment, 62% completed 4 or more cycles, and 27% completed 8 cycles.

[4] = test system: relapsed/refractory multiple myeloma; experiment: Open-label Phase II study of bortezomib in relapsed, refractory myeloma: IRC confirmed response (Blade criteria); assay type: in vivo, human
Description: An Open-Label Phase II Study of Bortezomib in Patients with Myeloma Who Have Relapsed Following Front-Line Therapy and are Refractory to their Most Recent Therapy
as §1, §2
A formal statistical analysis plan was developed and finalized prior to database lock. The primary efficacy analyses were performed on the intent-to-treat (ITT) population. The primary efficacy analysis were performed on the rates of responders, where a responder was defined as a CR, PR, or MR using the criteria prospectively established in Table C. Two-sided 90% confidence limits on proportions of responders in each dose group were established, corresponding to a 95% one-sided lower limit.
Based on the criteria reported by Kraut et al., J. Clin. Oncol. 16(2): 589-592 (1998) and Blade et al., Br. J. Haematol. 102(5): 1115-1123 (1998). In patients with CR, bone marrow was analyzed using PCR for verification of CR at the molecular level.
The Independent Review Committee (IRC) evaluation of confirmed response to treatment with bortezomib alone is provided in Table D; further categorization of response for those patients who experienced partial remission is provided in Table E. This independent panel panel of three medical oncologists reviewed all data for 193 evaluable patients in the trial and assigned response using Blade criteria (Table C). […] An additional 46 (24%) of patients had evidence for stable disease (NC, no change) in response to bortezomib alone, which reflects an improvement in status for these patients who were progressing at the time of study entry. Based on the IRC assessment, 38 (20%) of the 193 patients had progressive disease and an additional 42 patients (22%) were considered not evaluable for response by the IRC. […] See Richardson PG, et al., New Eng. J. Med.; 348: 2609-17 (2003).

[5] = IRC assessment, bortezomib alone, N = 193
[6] = IRC confirmed, bortezomib alone, N = 193

For `CC(C)C[C@H](NC(=O)[C@H](Cc1ccccc1)NC(=O)c1cnccn1)B(O)O` [bortezomib, N-pyrazinecarbonyl-L-phenylalanine-L-leucineboronic acid], the “resistance to bortezomib of resistant sub-clones” value [1] is listed as 5-10 fold, the antitumor activity [2] is listed as “demonstrated antitumor activity” and the “tolerability of the dose” value [3] is listed as “well tolerated”. For the same compound, the “CR+PR rate” value ([4]; 202 patients enrolled, PS-341 alone, prior to added dexamethasone) was 27%, the “overall response rate to PS-341 alone” value ([4]; 202 patients enrolled, prior to any patients receiving added dexamethasone) was 35% and the “Not Evaluable for response, number of patients” value [4, 5] was 42 patients. The “Not Evaluable for response, percent of patients” value [4, 5] was 22%, the “Complete + Partial + Minor Responses, number of patients” value ([4]; IRC confirmed, bortezomib alone, 1.3 mg/m2 twice weekly, N = 193) was 67 patients and the “Complete + Near Complete Remissions (NCR), number of patients” value [4, 6] was 19 patients. For the same compound, the “Complete + Near Complete Remissions (NCR), percent of patients” value [4, 6] was 10%, the “Complete + Partial + Minor Responses, percent of patients” value [4, 6] was 35% and the “Complete + Partial Remissions, number of patients” value [4, 6] was 53 patients. The “Complete + Partial Remissions, percent of patients” value [4, 6] was 27%, the “Complete Remission (CR), number of patients” value [4, 6] was 19 patients and the “Complete Remission (CR), percent of patients” value [4, 6] was 4%. For the same compound, the “Minor Response (MR), number of patients” value [4, 6] was 14 patients, the “Minor Response (MR), percent of patients” value [4, 6] was 5% and the “No Change (stable disease), number of patients” value [4, 6] was 46 patients. The “No Change (stable disease), percent of patients” value [4, 6] was 27%, the “Partial Remission (PR), number of patients” value [4, 6] was 34 patients and the “Partial Remission (PR), percent of patients” value [4, 6] was 23%. The “Progressive Disease, number of patients” value [4, 6] was 38 patients and the “Progressive Disease, percent of patients” value [4, 6] was 20%.
